Measurements: patent US7262268B2, “Lipopeptide stereoisomers, methods for preparing same, and useful intermediates” (Cubist Pharmaceuticals, Inc., priority 2001, dated 2007)
≈ marks a conversion by molar mass, not a printed value. Read-outs that look alike come from different tables or passages of the source.

Legend:
[1] = test system: S. aureus; type: cell-based
Procedure: (§1) Compounds according to Formula II were tested for antimicrobial activity against a panel of organisms according to standard procedures described by the National Committee for Clinical Laboratory Standards (NCCLS document M7-A5, Vol. 20, No. 2, 2000) except that all testing was performed at 37° C. Compounds were dissolved in 100% dimethyl sulfoxide and were diluted to the final reaction concentration (0.1 μg/mL-100 μg/mL) in microbial growth media. In all cases the final concentration of dimethyl sulfoxide incubated with cells is less than or equal to 1%. For minimum inhibitory concentration (MIC) calculations, 2-fold dilutions of compounds were added to wells of a microtiter plate containing 5×10^4 bacteria cells in a final volume of 100 μL of media (Mueller-Hinton Broth supplemented with 50 mg/L Ca^2+). The optical densities (OD) of the bacterial cells, which measures bacterial cell growth and proliferation, were measured using a commercial plate reader. The MIC value is defined as the lowest compound concentration inhibiting growth of the test organism.

[2] = test system: E. faecalis; type: cell-based
Procedure: as §1

[3] = Mueller-Hinton Broth supplemented with 50 mg/L Ca2+, 37° C., 2-fold dilutions

MIC (μg/ml) S. aureus [1] | MIC (μg/ml) E. faecalis [2] | SMILES | MIC (μg/ml) S. aureus [1, 3] | MIC (μg/ml) E. faecalis [2, 3]
 |  | CCCCCCCCCC(=O)N[C@@H](Cc1c[nH]c2ccccc12)C(=O)N[C@@H](CC(N)=O)C(=O)N[C@@H](CC(=O)O)C(=O)N[C@@H]1C(=O)NCC(=O)N[C@@H](CCCN)C(=O)N[C@@H](CC(=O)O)C(=O)N[C@H](C)C(=O)N[C@@H](CC(=O)O)C(=O)NCC(=O)N[C@H](CO)C(=O)N[C@@H](C(C)CC(=O)O)C(=O)N[C@@H](CC(=O)c2ccccc2N)C(=O)O[C@@H]1C (stereo partly shown) [Compound HH] | 6.25 µg/mL (≈ 3.86 µM) | 100 µg/mL (≈ 61.7 µM)
0.78 µg/mL (≈ 0.481 µM) | 6.26 µg/mL (≈ 3.86 µM) | CCCCCCCCCC(=O)N[C@@H](Cc1c[nH]c2ccccc12)C(=O)N[C@H](CC(N)=O)C(=O)N[C@@H](CC(=O)O)C(=O)N[C@@H]1C(=O)NCC(=O)N[C@@H](CCCN)C(=O)N[C@@H](CC(=O)O)C(=O)N[C@H](C)C(=O)N[C@@H](CC(=O)O)C(=O)NCC(=O)N[C@H](CO)C(=O)N[C@@H]([C@H](C)CC(=O)O)C(=O)N[C@@H](CC(=O)c2ccccc2N)C(=O)O[C@@H]1C [Daptomycin] |  | 
